Test results taken from patent publication US10375962B2, “Heterocycle derivatives as pesticides” (BAYER CROPSCIENCE AKTIENGESELLSCHAFT, priority 2016, dated 2019).
Like-named read-outs stand apart in the source and are kept apart here.

Key:
[1] = log P by HPLC on a reversed-phase column (C 18), EEC Directive 79/831 Annex V.A8; type: physicochemical; conditions: for chromatographic logP: reversed-phase HPLC column (C 18)
Excerpt: Called log P (HCOOH) in the table.
Called log P (neutral) in the table.

[2] = test system: adult cat fleas (Ctenocephalides felis); test: Ctenocephalides felis - in vitro contact tests with adult cat fleas; type: in vivo; conditions: application rate 5 μg/cm^2; after 48 h
Procedure: For the coating of the test tubes, 9 mg of active compound are first dissolved in 1 ml of acetone p.a. and then diluted to the desired concentration with acetone p.a. 250 μl of the solution are distributed homogeneously on the inner walls and the base of a 25 ml test tube by turning and rocking on an orbital shaker (rocking rotation at 30 rpm for 2 h). With 900 ppm of active compound solution and internal surface area 44.7 cm^2, given homogeneous distribution, an area-based dose of 5 μg/cm^2 is achieved.
After the solvent has evaporated off, the tubes are populated with 5-10 adult cat fleas (Ctenocephalides felis), sealed with a perforated plastic lid and incubated in a horizontal position at room temperature and ambient humidity. After 48 h, efficacy is determined. To this end, the test tubes are stood upright and the fleas are knocked to the base of the tube. Fleas which remain motionless at the base or move in an uncoordinated manner are considered to be dead or moribund.
100% efficacy means that all the fleas were dead or moribund. 0% efficacy means that no fleas were harmed.

[3] = test system: unfed adult cat fleas (Ctenocephalides felis); test: Ctenocephalides felis - oral test; type: in vivo; conditions: application rate 100 ppm in citrated cattle blood; after 2 days
Procedure: (§1) Solvent: dimethyl sulphoxide
For the purpose of production of a suitable active compound formulation, 10 mg of active compound are mixed with 0.5 ml of dimethyl sulphoxide. Dilution with citrated cattle blood gives the desired concentration.
About 20 unfed adult cat fleas (Ctenocephalides felis) are placed into a chamber which is closed at the top and bottom with gauze. A metal cylinder whose bottom end is closed with parafilm is placed onto the chamber. The cylinder contains the blood/active compound formulation, which can be imbibed by the fleas through the parafilm membrane.
After 2 days, the kill in % is determined. 100% means that all of the fleas have been killed; 0% means that none of the fleas have been killed.

[4] = test system: L1 larvae of the Australian sheep blowfly (Lucilia cuprina); test: Lucilia cuprina test; type: in vivo; conditions: application rate 100 ppm; after 2 days
Procedure: as §1
(§2) To produce a suitable active compound formulation, 10 mg of active compound are mixed with 0.5 ml of dimethyl sulphoxide, and the concentrate is diluted with water to the desired concentration.
About 20 L1 larvae of the Australian sheep blowfly (Lucilia cuprina) are transferred into a test vessel containing minced horsemeat and the active compound formulation of the desired concentration.
After 2 days, the kill in % is determined. 100% means that all the larvae have been killed; 0% means that no larvae have been killed.

[5] = test system: larvae of the mustard beetle (Phaedon cochleariae); test: Phaedon cochleariae - spray test; type: in vivo; conditions: after 7 days
Procedure: (§3) Solvent: 78.0 parts by weight of acetone • • 1.5 parts by weight of dimethylformamide
(§4) Emulsifier: alkylaryl polyglycol ether
(§5) To produce a suitable active compound formulation, 1 part by weight of active compound is dissolved with the stated parts by weight of solvent and made up with water containing an emulsifier concentration of 1000 ppm until the desired concentration is attained. To produce further test concentrations, the formulation is diluted with emulsifier-containing water.
Discs of Chinese cabbage leaves (Brassica pekinensis) are sprayed with an active compound formulation of the desired concentration and, after drying, populated with larvae of the mustard beetle (Phaedon cochleariae).
After 7 days, the efficacy in % is determined. 100% means that all the beetle larvae have been killed and 0% means that none of the beetle larvae have been killed.

[6] = test system: caterpillars of the armyworm (Spodoptera frugiperda); test: Spodoptera frugiperda - spray test; type: in vivo; conditions: maize leaf discs, after 7 days
Procedure: Solvent: 78.0 parts by weight of acetone • • 1.5 parts by weight of dimethylformamide Emulsifier: alkylaryl polyglycol ether […] To produce further test concentrations, the formulation is diluted with emulsifier-containing water. Leaf discs of maize (Zea mays) are sprayed with an active compound preparation of the desired concentration and, after drying, populated with caterpillars of the armyworm (Spodoptera frugiperda).

[7] = test system: green peach aphid (Myzus persicae); test: Myzus persicae spray test (bell pepper plants); type: in vivo; conditions: application rate 20 ppm, after 6 days
Procedure: Solvent: 14 parts by weight of dimethylformamide
as §4
as §5, with “water. If the addition of ammonium salts or/and penetrants is required, these are each added in a concentration of 1000 ppm to the formulation solution.” for “water.”
Bell pepper plants (Capsicum annuum) severely infested with the green peach aphid (Myzus persicae) are treated by spraying with the active compound formulation in the desired concentration.
After 6 days, the kill in % is determined. 100% means that all of the aphids have been killed; 0% means that none of the aphids have been killed.

[8] = test system: green peach aphid (Myzus persicae); test: Myzus persicae - spray test (Chinese cabbage leaf discs); type: in vivo; conditions: after 5 days
Procedure: Solvent: 78 parts by weight of acetone • • 1.5 parts by weight of dimethylformamide Emulsifier: alkylaryl polyglycol ether
as §5
Discs of Chinese cabbage leaves (Brassica pekinensis) infested by all stages of the green peach aphid (Myzus persicae) are sprayed with an active compound formulation of the desired concentration.
After 5 days, the efficacy in % is determined. 100% means that all the aphids have been killed and 0% means that none of the aphids have been killed.

[9] = test system: greenhouse red spider mite (Tetranychus urticae); test: Tetranychus urticae - spray test, OP-resistant; type: in vivo; conditions: bean leaf discs, after 6 days
Procedure: as §3, §4, §5
Discs of bean leaves (Phaseolus vulgaris) infested with all stages of the greenhouse red spider mite (Tetranychus urticae) are sprayed with an active compound formulation of the desired concentration.
After 6 days, the efficacy in % is determined. 100% means that all the spider mites have been killed; 0% means that no spider mites have been killed.

[10] = test system: adult houseflies (Musca domestica); test: Musca domestica test; type: in vivo; conditions: application rate 100 ppm; after 2 days
Procedure: as §1, §2
Vessels containing a sponge treated with sugar solution and the active compound formulation of the desired concentration are populated with 10 adult houseflies (Musca domestica).
After 2 days, the kill in % is determined. 100% means that all of the flies have been killed; 0% means that none of the flies have been killed.

[11] = test system: engorged adult female cattle ticks (Boophilus microplus); test: Boophilus microplus - injection test; type: in vivo; conditions: application rate 20 μg/animal, after 7 days
Procedure: as §1
To produce a suitable active compound formulation, 10 mg of active compound are mixed with 0.5 ml of solvent and the concentrate is diluted with solvent to the desired concentration.
1 μl of the active compound solution is injected into the abdomen of 5 engorged adult female cattle ticks (Boophilus microplus). The animals are transferred into dishes and kept in a climate-controlled room.
Efficacy is assessed after 7 days by laying of fertile eggs. Eggs which are not visibly fertile are stored in a climate-controlled cabinet until the larvae hatch after about 42 days. An efficacy of 100% means that none of the ticks has laid any fertile eggs; 0% means that all the eggs are fertile.

[12] = acidic range, pH 2.7, 0.1% aqueous formic acid/acetonitrile, 55° C.
[13] = neutral range, pH 7.8, 0.001 molar aqueous ammonium hydrogencarbonate/acetonitrile, 55° C.

| SMILES | LOGP_HCOOH (log P (HCOOH)) ([1]; pH 2.7) | LOGP_NEUTRAL (log P (neutral)) ([1]; pH 7.8) | efficacy (fleas dead or moribund) [2] | efficacy (kill) [3] | efficacy (kill) [4] | efficacy ([5]; application rate 100 g/ha) | efficacy ([5]; application rate 500 g/ha) | efficacy ([6]; application rate 100 g/ha) | efficacy ([6]; application rate 500 g/ha) | other results |
| --- | --- | --- | --- | --- | --- | --- | --- | --- | --- | --- |
| CCS(=O)(=O)c1ccc(N2Cc3ccc(Cl)cc3C2=O)nc1-c1nc2cc(C(F)(F)F)ncc2n1C [Example I-34] | 3.83 | 3.79 | 100% | 95% | 100% | 100% | 100% | 100% | 100% | efficacy (kill) [7]: 100% |
| CCS(=O)(=O)c1ccc(-n2nc3ccccn3c2=O)nc1-c1nc2cc(C(F)(F)F)ncc2n1C [Example I-43] | 2.26 | 2.31 | – | – | – | – | – | – | – | efficacy ([8]; application rate 100 g/ha): 90%; efficacy ([9]; application rate 100 g/ha): 90% |
| CCS(=O)(=O)c1ccc(N2Cc3ccccc3C2)nc1-c1nc2cc(C(F)(F)F)ncc2n1C [Example I-21] | 3.59 | 3.63 | 80% | 90% | 100% | – | 83% | 100% | 100% | efficacy (kill) [7]: 100% |
| CCS(=O)(=O)c1ccc(-n2nc3c(Cl)cc(C(F)(F)F)cn3c2=O)nc1-c1nc2cc(C(F)(F)F)ncc2n1C [Example I-32] | – | 3.39 | – | 100% | 100% | 100% | 100% | 83% | 100% | efficacy (kill) [10]: 100% |
| CCS(=O)(=O)c1ccc(N2Cc3cccnc3C2)nc1-c1nc2cc(C(F)(F)F)ncc2n1C [Example I-22] | – | – | 100% | 100% | 100% | 100% | 100% | 100% | 100% | LOGP_HCOOH (log P (HCOOH)) [1, 12]: 2.44; LOGP_NEUTRAL (log P (neutral)) [1, 13]: 2.46; efficacy (kill) [7]: 99% |
| CCS(=O)(=O)c1ccc(-n2ncc3ccc(Cl)cc32)nc1-c1nc2cc(C(F)(F)F)ncc2n1C [Example I-2, 2-[6-(6-Chloroindazol-1-yl)-3-ethylsulphonyl-2-pyridyl]-3-methyl-6-(trifluoromethyl)imidazo[4,5-c]pyridine] | – | – | – | – | – | – | – | – | – | chromatographic logP ([1]; acidic range, pH 2.7, 0.1% aqueous formic acid/acetonitrile, 55° C., read-out: LOGP_HCOOH (log P (HCOOH))): 4.01; chromatographic logP ([1]; neutral range, pH 7.8, 0.001 molar aqueous ammonium hydrogencarbonate/acetonitrile, 55° C., read-out: LOGP_NEUTRAL (log P (neutral))): 3.92; efficacy ([9]; application rate 500 g/ha): 70% |
| CCS(=O)(=O)c1ccc(N2Cc3ccccc3C2=O)nc1-c1nc2cc(C(F)(F)F)ncc2n1C [Example I-31] | – | – | 100% | – | 100% | 100% | 100% | 100% | 100% | LOGP_HCOOH (log P (HCOOH)) [1, 12]: 3.32; LOGP_NEUTRAL (log P (neutral)) [1, 13]: 3.28; efficacy ([9]; application rate 500 g/ha): 90% |
| CCS(=O)(=O)c1ccc(-c2ccc3nn(C)cc3c2)nc1-c1nc2cc(C(F)(F)F)ncc2n1C [Example I-15] | 2.62 | 2.58 | – | – | 100% | 100% | 100% | – | 100% | efficacy ([9]; application rate 500 g/ha): 90% |
| CCS(=O)(=O)c1ccc(-n2cnc3nc(Cl)ccc32)nc1-c1nc2cc(C(F)(F)F)ncc2n1C [Example I-35] | – | 2.53 | 100% | 95% | – | 83% | 100% | – | – | – |
| CCS(=O)(=O)c1ccc(-n2cnc3ccccc32)nc1-c1nc2cc(C(F)(F)F)ncc2n1C [Example I-24] | 2.66 | 2.64 | 100% | 95% | – | – | 83% | 83% | 100% | efficacy ([8]; application rate 100 g/ha): 100%; efficacy ([8]; application rate 500 g/ha): 90% |
| CCS(=O)(=O)c1ccc(-n2cnc3cc(Cl)ccc32)nc1-c1nc2cc(C(F)(F)F)ncc2n1C [Example I-17] | 3.19 | 3.12 | – | 100% | – | 100% | 100% | 100% | 100% | efficacy (kill) [7]: 90% |
| CCS(=O)(=O)c1ccc(-n2nnc3ccccc32)nc1-c1nc2cc(C(F)(F)F)ncc2n1C [Example I-39] | – | 3.21 | – | – | – | – | – | – | – | efficacy ([9]; application rate 100 g/ha): 70% |
| CCS(=O)(=O)c1ccc(-n2cc3cccc(Cl)c3n2)nc1-c1nc2cc(C(F)(F)F)ncc2n1C [Example I-5] | – | – | – | – | 100% | – | 100% | 100% | 100% | LOGP_HCOOH (log P (HCOOH)) [1, 12]: 3.94; LOGP_NEUTRAL (log P (neutral)) [1, 13]: 3.92; efficacy (laying of fertile eggs) [11]: 80%; efficacy ([8]; application rate 100 g/ha): 70%; efficacy ([8]; application rate 500 g/ha): 90% |
| CCS(=O)(=O)c1ccc(-n2ncc3cnccc32)nc1-c1nc2cc(C(F)(F)F)ncc2n1C [Example I-11] | – | – | – | – | – | – | 83% | – | – | LOGP_HCOOH (log P (HCOOH)) [1, 12]: 1.75; LOGP_NEUTRAL (log P (neutral)) [1, 13]: 2.47; efficacy (laying of fertile eggs) [11]: 90% |
